In patent publication US20170058264A1, “FORMATION OF MULTICELLULAR TUMOROIDS AND USES THEREOF” (UNIVERSITY OF SOUTH FLORIDA, priority 2014, published 2017):

How the values were obtained:
Format in all cases: cell-based
[1] = system: BT474 tumoroids; assay: Lapatinib response of BT474 tumoroids in monoculture or co-culture, cell viability by PrestoBlue assay; details: Homo sapiens, BT-474, 72 h, about 72 hours
Method: (§1) On day 2 after culturing, cells were treated with the indicated concentrations (μM) of Lapatinib for about 72 hours. Cell viability was measured by PrestoBlue® assay.
(§2) The sensitivity of tumoroids derived from monoculture or co-culture of BT474 and HCC1569 to Lapatinib was examined. Lapatinib is a dual small molecule tyrosine kinase inhibitor targeting EGFR and HER2. […] Similar results were obtained when established tumoroids were treated with Lapatinib.

[2] = system: HCC1569 tumoroids; assay: Lapatinib response of HCC1569 tumoroids in monoculture or co-culture, cell viability by PrestoBlue assay; details: HCC1569 cultured in the presence of ECs and CAFs vs monoculture
Method: as §1, §2

[3] = biological target: BT474 co-cultured tumoroids; assay: Ki-67 expression by immunohistochemistry and tumoroid formation in Lapatinib treated BT474 tumoroids; details: 72 hours
Method: Ki-67 can be used as a surrogate marker of clinical efficacy in cancer trials. Expression of Ki-67. Monoculture and Co-culture tumoroids were treated with increasing concentrations of Lapatinib (0-10 μM). Tumoroids were fixed and immunostained for […].

[4] = system: BT474 tumoroids; assay: VEGF, IL-6 and TGF-β1 in day 5 culture supernatants of BT474 tumoroids by ELISA; details: co-cultured tumoroids; Lapatinib about 2.5 μM-5 μM; day 5 supernatants
Method: BT474 tumoroids were monocultured or co-cultured in the presence or absence of Lapatinib (2.5-10 μM) and the levels of VEGF, IL-6, and TGF-β1 in the day 5 culture supernatants were determined by ELISA. * p<0.05.
To identify and evaluate the biomarkers of clinical efficacy, both monoculture and co-culture tumoroids were treated with increasing concentrations of Lapatinib (about 0 to about 10 μM). Five days after culture, the supernatants of the culture were tested for levels of VEGF, IL-6, and TGF-β. […] BT474 tumoroids were mono-cultured or co-cultured in the presence or absence of Lapatinib (2.5-10 μM) and the levels of VEGF, IL-6, and TGF-β1 in the day 5 culture supernatants were determined by ELISA. * p<0.05.

[5] = system: BT474 tumoroids (SCTs and MCTs); assay: Quantibody Array (multiplexed sandwich ELISA) of factors in day 5 culture supernatants of BT474 SCTs and MCTs
Method: BT474 tumoroids (SCTs, blue bars and MCTs, red bars) were cultured in the presence or absence of Lapatinib (0.5-12.5 μM), as in FIGS. 9A-9B, and the levels of IL-6, IL-8, MCP-1 in the day 5 culture supernatants were determined by Sandwich ELISA (FIGS. 20-21). * p<0.05.
BT474 tumoroids (SCTs, blue bars and MCTs, red bars) were cultured in the presence or absence of Lapatinib (0.5-12.5 μM), as in FIGS. 9A-9B, and the levels of PDGF-BB, DKK-1, OPG in the day 5 culture supernatants were determined by Sandwich ELISA (FIGS. 20-21). * p<0.05.
BT474 tumoroids (SCTs, blue bars and MCTs, red bars) were cultured in the presence or absence of Lapatinib (0.5-12.5 μM), as in FIGS. 9A-9B, and the levels of MMP-3 in the day 5 culture supernatants were determined by Sandwich ELISA (FIGS. 20-21). * p<0.05.
Additionally, to characterize factors and molecules released in SCTs and MCTs culture, a human Quantibody Array (RayBiotech Inc.), which utilizes a multiplexed sandwich ELISA assay and enables detection of multiple proteins/factors simultaneously, was used. […] This list includes adhesion molecules (E-selectin, ICAM-1, P-Cadherin, VE-cadherin), \growth factors (aFGF, activin A, […] (AR), bFGF, bone morphogenic protein (BMP)-2, BMP-4, BMP-6, BMP-7, BMP-9, dickkopf-1 (DKK-1), IGF-1, osteoprotegerin (OPG), osteopontin (OPN), PDGF-BB, TGFβ1, TGFβ2, TGFβ3), chemokines (monocyte chemotactic protein 1 (MCP-1)), macrophage inflammatory protein (MIP)-1α, VCAM-1), cytokines (IL-1α, IL-1β, IL-6, IL-8, IL-11, IL-17, M-CSF), receptor activator of NFkB (RANK), osteoactivin, SDF-1α, TNF related activation induced cytokine (TRANCE)) and matrix metalloproteinases (MMPs), such as MMP-2, -3, -9, -13.
To determine whether any of these factors are expressed in SCTs and MCTs, we incubated QAH-BMA-1000 array with a pool of culture supernatants of BT474-SCTs and MCTs in quadruplets. Experiments were conducted using manufacturer's protocol. An appropriate positive control was used to normalize the signal intensity. […] These include, growth factors, such as PDGF-BB, OPG and DKK-1, chemokine such as MCP-1, IL-6 and IL-8, and protease MMP-3 (see e.g. FIGS. 23A-25.)
Lapatinib treated cultures were examined for factors that are found differentially expressed in MCTs, compared to SCTs.

[6] = system: BT-474 SCTs; assay: Lapatinib response of BT-474 SCTs cultured on Matrigel or FiSS, Presto Blue cell viability; details: 3 d old SCTs; examined after 72 hrs
Method: Cells (3×10^3) were cultured on a layer of Matrigel coated plate in the presence of growth medium supplemented with 10% Matrigel. Three days after culture, cells were treated with indicated concentrations of Lapatinib and examined after 72 hrs. Spheroids were stained with calcein AM and examined by fluorescent microscope.
To benchmark FiSS-tumoroids against Matrigel-based 3D-culture for prediction of clinical efficacy, 3 d old BT-474 SCTs (cultured on Matrigel or FiSS) were treated with Lapatinib and examined tumoroid formation (FIGS. 26A-26D) and cell viability (FIGS. 27A-27B). Although Matrigel induced numerous smaller size tumoroids compared to FiSS tumoroids, their response to Lapatinib was similar as shown in FIGS. 27A-27B.

[7] = biological target: BT474 tumoroids; assay: High-content analysis (Operetta) of Ki-67 immunostaining in BT474 tumoroids; details: different concentrations of Lapatinib; about 72 hrs
Method: Quantification of immunostaining was completed using Operetta.
To optimize quantification of high content imaging for BT474 tumoroids were incubated for 72 h and then imaged on the Operetta HCI System with a 20× objective. Single plane z-stacked images of BT474 tumoroids on scaffolds were stained with DAPI and images were acquired using the Operetta high content imaging system from Perkin Elmer. Representative fields were selected at 20× magnification and z-stacks of these fields were acquired with an interval of 2 um between each z-plane. Z-stacks were analyzed using the image processing software ImageJ (NIH). […] Using HCA we have quantified changes in Ki-67 expression in BT474 tumoroids treated with different concentrations of Lapatinib.

[8] = MCTs, Lapatinib 0.5-12.5 μM, dose dependent

## CS(=O)(=O)CCNCc1ccc(-c2ccc3ncnc(Nc4ccc(OCc5cccc(F)c5)c(Cl)c4)c3c2)o1 [Lapatinib]
[1]; BT474 cells cultured on 2D or FiSS (monoculture)
  IC50: < 2.5 µM
[1]; MCTs, in the presence of ECs and CAFs
  IC50: > 10 µM
[2]
  resistance to Lapatinib: increase in resistance
[3]; Lapatinib 2.5 μM
  Ki-67 staining: completely abrogated
[3]; Lapatinib 2.5 mM as printed
  tumoroid formation: inhibited tumoroid formation
[4]
  secretion of IL-6: significantly decreased
  secretion of TGF-β: significantly decreased
  secretion of VEGF: significantly decreased
[5]; MCTs, 12.5 uM Lapatinib
  reduction of MCP-1 expression: ≤ 50%
[5]; MCTs, Lapatinib 0.5-12.5 μM
  DKK-1 expression: reduced significantly
  MMP-3 expression: reduced only marginally
[5]; [8]
  IL-6 in culture supernatants: reduced to basal level
  IL-8 in culture supernatants: reduced to basal level
[5]; SCTs and MCTs, Lapatinib 0.5-12.5 μM
  PDGF-BB expression: did not alter
[5]; SCTs, Lapatinib 0.5-12.5 μM
  MCP-1 expression: abolished MCP-1 expression completely
[6]
  response to Lapatinib (cell viability), Matrigel vs FiSS tumoroids: similar
[7]
  Ki-67 expression (relative intensity, HCA): dose-dependent Ki-67 expression
